Assay results as given in patent US20230416330A1, “Optimized GIP Peptide Analogues” (Antag Therapeutics ApS, priority 2019, published 2023).
Starred links: 1 amine or outer side, 2 acyl side, 3 side chain; linkers in the order of their positions; H or OH if unused. Non-standard residues stand in square brackets, D forms with d. Residues, ends and D or L forms follow the SMILES beside them. Groups on a side chain read outwards from the residue. *: point of attachment. C18 diacid = O=C(O)CCCCCCCCCCCCCCCCC(=O)*; C16 diacid = O=C(O)CCCCCCCCCCCCCCC(=O)*; γGlu = O=C(O)[C@H](CCC(=O)[*:2])N[*:1]; Glutaryl = O=C(CCCC(=O)[*:2])[*:1]; Nle = CCCC[C@H](N)C(=O)O; AEEA = NCCOCCOCC(=O)O; Aib = CC(C)(N)C(=O)O

How the values were obtained:
human GIP receptor [1] = target: T1, human GIP receptor (Homo sapiens, UniProt P48546); test: cAMP assay Alternative 2 (Gaddum assay), antagonist potency pKb; assay type: cell-based; details: Table 2C; Gaddum equation, single antagonist dose; HEK-293 hGIPR; read-out: nM (Kb)
T1 construct: host or cells: HEK-293 cells, transient transfection (Lipofectamine 2000), cDNA in pCMV-Script vector
T1 sequence (P48546 22-466): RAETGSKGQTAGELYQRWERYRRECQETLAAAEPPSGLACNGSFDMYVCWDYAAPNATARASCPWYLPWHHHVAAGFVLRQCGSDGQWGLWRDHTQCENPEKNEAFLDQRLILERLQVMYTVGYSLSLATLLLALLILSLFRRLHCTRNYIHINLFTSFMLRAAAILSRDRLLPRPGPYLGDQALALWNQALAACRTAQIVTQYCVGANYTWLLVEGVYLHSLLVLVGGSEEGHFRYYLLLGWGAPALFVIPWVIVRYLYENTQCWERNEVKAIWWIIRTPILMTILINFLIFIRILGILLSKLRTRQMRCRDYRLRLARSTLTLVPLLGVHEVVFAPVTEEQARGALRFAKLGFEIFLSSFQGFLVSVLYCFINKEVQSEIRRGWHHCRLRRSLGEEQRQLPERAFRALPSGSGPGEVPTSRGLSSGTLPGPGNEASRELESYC

[2] = Physical stability: fibril formation in Thioflavin T (ThT) assay with agitation; assay type: physicochemical; details: 1 mg/ml, TFA, Phosphate (7.4); 25° C., agitation
Method in brief: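 Read-out is continuous ThT fluorescence at 486 nm, with lag time taken where signal reaches 10% between pre- and post-transition baselines. Filtered samples (1, 5, 7.5 or 15 mg/ml; pH 7.4 phosphate buffer or NaOH-adjusted water) were stressed at 25° C. by orbital rotation at 300 rpm with one silica bead per well.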

[3] = Solubility by visual inspection of peptide solutions; assay type: physicochemical; details: 1 mg/ml, TFA, Phosphate (7.4)
Method in brief: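 Solubility scored by eye: clear, colorless appearance after gentle mixing. Samples prepared at 1, 5, 7.5 or 15 mg/ml in either pH 7.4 water (NaOH-adjusted) or 50 mM sodium phosphate buffer, pH 7.4.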

human GIP receptor [4] = target: T2, human GIP receptor (human, UniProt P48546 22-466); test: cell-based or functional assay
T2 sequence (looked up): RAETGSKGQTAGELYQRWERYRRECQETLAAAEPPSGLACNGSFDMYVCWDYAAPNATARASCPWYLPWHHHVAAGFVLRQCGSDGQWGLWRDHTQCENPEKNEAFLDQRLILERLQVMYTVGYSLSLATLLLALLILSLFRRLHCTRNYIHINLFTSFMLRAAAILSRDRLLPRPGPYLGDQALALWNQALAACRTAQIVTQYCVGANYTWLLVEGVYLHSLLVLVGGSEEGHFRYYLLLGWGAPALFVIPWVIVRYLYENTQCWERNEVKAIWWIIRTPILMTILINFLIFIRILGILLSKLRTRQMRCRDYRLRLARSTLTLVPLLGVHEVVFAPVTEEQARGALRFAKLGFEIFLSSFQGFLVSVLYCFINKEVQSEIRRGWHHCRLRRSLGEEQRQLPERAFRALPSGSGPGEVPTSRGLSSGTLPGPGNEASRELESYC

## CC[C@H](C)[C@H](NC(=O)[C@H](CCCCN)NC(=O)[C@H](CCC(=O)O)NC(=O)[C@H](CC(C)C)NC(=O)C(C)(C)NC(=O)[C@@H](NC(=O)[C@H](CO)NC(=O)[C@H](Cc1ccc(O)cc1)NC(=O)[C@H](CCC(=O)O)NC(=O)[C@H](CO)NC(=O)[C@@H](NC(=O)[C@H](Cc1ccccc1)NC(=O)[C@@H](NC(=O)CNC(=O)[C@@H](N)CCC(=O)O)[C@@H](C)O)[C@@H](C)CC)[C@@H](C)CC)C(=O)N[C@@H](CCCCNC(=O)COCCOCCNC(=O)COCCOCCNC(=O)CC[C@H](NC(=O)CCCCCCCCCCCCCCCCC(=O)O)C(=O)O)C(=O)N[C@@H](CCC(N)=O)C(=O)N[C@@H](CCC(N)=O)C(=O)N[C@@H](CC(=O)O)C(=O)N[C@@H](Cc1ccccc1)C(=O)N[C@H](C(=O)N[C@@H](CCC(=O)O)C(=O)N[C@@H](Cc1c[nH]c2ccccc12)C(=O)N[C@@H](CC(C)C)C(=O)N[C@@H](CC(C)C)C(=O)N[C@@H](C)C(=O)N[C@@H](CCC(N)=O)C(=O)N[C@@H](CCCCN)C(=O)N1CCC[C@H]1C(=O)N[C@@H](CO)C(=O)N[C@@H](CO)C(=O)NCC(=O)N[C@@H](C)C(=O)N1CCC[C@H]1C(=O)N1CCC[C@H]1C(=O)N1CCC[C@H]1C(=O)N[C@@H](CO)C(=O)O)C(C)C [AT754] (H-EGTFISEYSI[Aib]LEKIK([AEEA-AEEA-γGlu-C18 diacid])QQDFVEWLLAQKPSSGAPPPS-OH; N-terminus assumed)
Human GIP receptor [1]
  Kb: 2.2 nM
[2]
  Avr lag time (h): fnd (Fnd = fibrils not detected within experiment time (96 hours) with agitation.)
[3]
  Visual appearance: Clear

## CCCC[C@H](NC(=O)C(C)(C)NC(=O)[C@@H](NC(=O)[C@H](CO)NC(=O)[C@H](Cc1ccc(O)cc1)NC(=O)[C@H](CCC(=O)O)NC(=O)[C@H](CO)NC(=O)[C@@H](NC(=O)[C@H](Cc1ccccc1)NC(=O)[C@@H](NC(=O)CNC(=O)CCCC(=O)O)[C@@H](C)O)[C@@H](C)CC)[C@@H](C)CC)C(=O)N[C@@H](CCC(=O)O)C(=O)N[C@@H](CCCCN)C(=O)N[C@H](C(=O)N[C@@H](CCCCNC(=O)CCCCCCCCCCCCCCC(=O)O)C(=O)N[C@@H](CCC(N)=O)C(=O)N[C@@H](CCC(N)=O)C(=O)N[C@@H](CCC(=O)O)C(=O)N[C@@H](Cc1ccccc1)C(=O)N[C@H](C(=O)N[C@@H](CCC(=O)O)C(=O)N[C@@H](Cc1c[nH]c2ccccc12)C(=O)N[C@@H](CC(C)C)C(=O)N[C@@H](CC(C)C)C(=O)N[C@@H](C)C(=O)N[C@@H](CCC(N)=O)C(=O)N[C@@H](CCCCN)C(=O)N1CCC[C@H]1C(=O)N[C@@H](CO)C(=O)N[C@@H](CO)C(=O)NCC(=O)N[C@@H](C)C(=O)N1CCC[C@H]1C(=O)N1CCC[C@H]1C(=O)N1CCC[C@H]1C(=O)N[C@@H](CO)C(=O)O)C(C)C)[C@@H](C)CC [AT755] (Glutaryl-GTFISEYSI[Aib][Nle]EKIK(C16 diacid)QQEFVEWLLAQKPSSGAPPPS-OH)
Human GIP receptor [1]
  Kb: 0.23 nM
[2]
  Avr lag time (h): fnd (Fnd = fibrils not detected within experiment time (96 hours) with agitation.)
[3]
  Visual appearance: Clear

B1: AT760 (peptide)
peptide: EGTFISDYSIXMDKIKQQDFVNWLLAQKPSSGAPPPS
modifications: Aib at 13; C16-diacid on Lys18 side chain, no linker; C-terminal COOH; GIP(1-42) numbering
Human GIP receptor [4]
  nM (Kb, Schild analysis, cAMP): 0.46 nM
  pKb (Schild analysis, cAMP): 9.3
